Test results as given in patent publication US11160797B2, “Pyridinone derivatives and their use as selective ALK-2 inhibitors” (NOVARTIS AG, priority 2017, dated 2021).

Tests used:
[1] = target: T1, wild-type ALK2 (aa172-499) (Homo sapiens (Human), UniProt Q04771); assay: ADPGlo biochemical autophosphorylation assay, ALK2; conditions: 15 uM ATP
[2] = target: T1, wild-type ALK2 (aa172-499); assay: Caliper biochemical peptide phosphorylation assay, ALK2; conditions: Caliper peptide phosphorylation, 15 uM ATP; read-out: ALK2 IC50
[3] = target: ALK2 FOP mutant (aa172-499 R206H) (Homo sapiens (Human), UniProt Q04771, R206H); assay: Caliper biochemical peptide phosphorylation assay, ALK2 FOP; conditions: Caliper peptide phosphorylation, R206H, 15 uM ATP; read-out: ALK2 FOP EPK IC50
Chain of ALK2 FOP mutant (aa172-499 R206H) (Q04771 172-499 R206H): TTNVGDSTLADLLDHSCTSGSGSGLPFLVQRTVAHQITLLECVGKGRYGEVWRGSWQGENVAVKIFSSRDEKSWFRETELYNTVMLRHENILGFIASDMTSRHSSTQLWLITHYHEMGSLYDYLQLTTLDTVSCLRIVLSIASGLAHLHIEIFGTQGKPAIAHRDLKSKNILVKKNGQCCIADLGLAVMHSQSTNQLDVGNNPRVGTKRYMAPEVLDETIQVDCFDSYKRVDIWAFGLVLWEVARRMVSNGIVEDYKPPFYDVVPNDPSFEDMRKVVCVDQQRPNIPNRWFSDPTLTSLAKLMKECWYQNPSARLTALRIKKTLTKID

[4] = target: ALK5 (aa162-503) (Homo sapiens (Human), UniProt P36897); assay: Caliper biochemical peptide phosphorylation assay, ALK5; conditions: 15 uM ATP
Chain of ALK5 (aa162-503) (P36897 162-503): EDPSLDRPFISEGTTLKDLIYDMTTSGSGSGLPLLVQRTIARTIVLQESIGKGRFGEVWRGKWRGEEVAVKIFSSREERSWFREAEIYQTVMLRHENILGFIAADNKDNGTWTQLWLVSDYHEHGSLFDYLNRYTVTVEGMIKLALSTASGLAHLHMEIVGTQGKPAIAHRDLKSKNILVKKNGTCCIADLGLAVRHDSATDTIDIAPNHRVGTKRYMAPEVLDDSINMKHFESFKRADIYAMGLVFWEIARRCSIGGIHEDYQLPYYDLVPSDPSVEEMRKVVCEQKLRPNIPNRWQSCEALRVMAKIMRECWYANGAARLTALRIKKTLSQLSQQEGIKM
Method in brief: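 Baculovirus-expressed human GS+kinase-domain constructs (10 nM) with 2 uM fluorescein-labelled peptide and 15 uM ATP in 50 mM Hepes pH 7.5, 1 mM MgCl2, 12 mM MnCl2, 1 mM DTT, 10 uM Na3VO4, 60 min at 30 °C. EDTA stop; phospho/unphosphorylated peptide separated by microfluidic electrophoresis, r = p/(p+s); IC50 at half-maximal signal inhibition.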

[5] = tested on: male Sprague Dawley rats; assay: Turpentine oil-induced increase in serum hepcidin in rats; format: in vivo, rat; conditions: for Serum hepcidin concentration: 24 h post-TO
Protocol: Measurements of serum hepcidin concentration were performed using a custom-made LC-MRM assay.
6 hours post-TO application sublingual blood samples were taken and serum was prepared from whole blood using clot activator centrifugation tubes (Sarstedt). […] 24 h post-TO application rats were sacrificed by CO2 overdosing and blood was isolated by venipuncture for serum preparation as described above. […] Statistical analyses were performed using GraphPad Prism software (GraphPad Software, Inc., La Jolla, Calif.) by two-way repeated measurement analysis of variance followed by Dunnett's multiple comparisons post-hoc test comparing treatment groups to the vehicle control group.

[6] = tested on: C57BL/6J male mice; conditions: mouse, in vivo
[7] = tested on: female Wistar rats; assay: Achilles midpoint tenotomy-induced heterotopic ossification in rats; format: in vivo, rat; conditions: 10 mg/kg q.d. oral
Text: To test whether compound A was able to prevent trauma-induced heterotopic ossification (HO) of soft tissue, we tested its therapeutic efficacy in a rat model of unilateral Achilles midpoint tenotomy (Rooney et al., Matrix 12: 274-281, 1992). To this end, the left Achilles tendon of 8-week-old female Wistar rats (body weight between 190-265 g) was completely transected using a sterile scalpel (blade number 11) under isoflurane inhalation narcosis with concomitant analgesic treatment applying 0.03 mg/kg buprenorphine for 48 hours every 10-12 h subcutaneously. Preventive oral treatment with compound A (10 mg/kg q.d.) or vehicle (sodium carboxymethyl cellulose:water:Tween 80, 0.5:99:0.5) was given for 10 weeks starting on the day of surgery (n=11-12 rats per group). […] Treatment efficacy was assessed longitudinally by taking radiographs of the operated distal leg (Faxitron LX-60 system) at 4 and 10 weeks post-tenotomy. Heterotopic bone volume was quantified in vivo by micro-computed tomography (micro-CT) under isoflurane inhalation narcosis (vivaCT40 instrument, Scanco Medical AG; 17.5 μm resolution) at 6 and 9 weeks post-surgery. […]

[8] = tested on: ALK2(Q207D) mice; assay: ALK2-dependent heterotopic ossification in ALK2(Q207D) transgenic mice; format: in vivo, mouse; conditions: 3 and 5 weeks post-induction, 10 mg/kg b.i.d. oral
[9] = tested on: 18-month-old Wistar female rats; assay: Bone gain in aged rats (pQCT and micro-CT, proximal tibia metaphysis); format: in vivo, rat; conditions: 5 mg/kg q.d. oral, 8 weeks, mean ± SEM
Protocol: To assess the bone anabolic potential of compound A, its therapeutic efficacy in aged female rats as a model of age-related human osteoporosis and other low bone mass conditions was tested. To this end, 18-month-old Wistar female rats (n=8-9 rats per group; body weight range: 330-460 g) were subjected to two-month once daily oral treatment with compound A (5 mg/kg q.d.) or vehicle (sodium carboxymethyl cellulose:water:Tween 80, 0.5:99:0.5). Rats were housed at 25° C. with a 12:12 h light-dark cycle and were fed a standard rodent diet containing 18.2% protein and 3.0% fat with an energy content of 15.8 MJ/kg (3890, Provimi Kliba SA) with food and water provided ad libitum. Treatment efficacy was determined by in vivo peripheral quantitative computed tomography (pQCT) and micro-computed tomography (micro-CT) in the left proximal tibia metaphysis under isoflurane inhalation narcosis (Stratec-Norland XCT-2000 pQCT; voxel size: 0.1 mm×0.1 mm×0.5 mm; vivaCT40 instrument, Scanco Medical AG; 12.5 μm resolution) after 8 weeks of treatment. […] The latter was related to enhanced trabecular thickness, but not number. Thus, compound A is bone anabolic in the aged skeleton.

T1 sequence (Q04771 172-499): as the sequence (Q04771 172-499 R206H) above, with H35R counted along it

## CC(C)n1cc(-c2cncc(-c3ccc4c(c3)CC(=O)N4C)c2)ccc1=O [Example 1, 5-(1′-isopropyl-6′-oxo-1′,6′-dihydro-[3,3′-bipyridin]-5-yl)-1-methylindolin-2-one]
[1]
  IC50: 110 nM
[2]
  IC50: 110 nM
[3]
  IC50: 90 nM
[4]
  IC50: 2600 nM
[5]; 6 hours post-TO, 3 or 10 mg/kg p.o.
  Serum hepcidin levels: strongly suppressed
[5]; 3 mg/kg p.o.
  Serum hepcidin concentration: returned to levels of vehicle-treated TO-challenged rats
[5]; 10 mg/kg p.o., p<0.001
  Serum hepcidin concentration: significantly reduced
[6]
  Blood hemoglobin: significantly improved
  Hematocrit: significantly improved
[7]; 4 weeks post-tenotomy, vehicle 100%
  Animals with radiographic evidence of beginning HO: 67%
[7]; 6 and 9 weeks post-surgery, versus vehicle
  Total heterotopic bone volume: significant reduction of HO
[8]
  Females in which heterotopic bone was absent (micro-CT): four of five
  Heterotopic bone (total heterotopic bone volume, micro-CT), males: absent
[8]; vehicle 67%
  Female mice with radiographic evidence of HO: one out of five
[8]; vehicle 83%
  Male mice with radiographic evidence of HO: none
[9]; micro-CT
  Cancellous BV/TV, %-change versus baseline: 8.9 ± 3.0 %
  Cortical thickness, %-change versus baseline: 12.0 ± 2.2 %
  Total BMD, %-change versus baseline: 5.6 ± 0.6 %
  Trabecular number, %-change versus baseline: −0.6 ± 5.4%
  Trabecular thickness, %-change versus baseline: 11.1 ± 2.9 %
[9]; pQCT
  Total BMC, %-change versus baseline: 4.3 ± 1.7 %
